Measured values published in publication PMC6628648, “Enabling microbial syringol conversion through structure-guided protein engineering” (Proceedings of the National Academy of Sciences of the …, 2019).

Experiments:
GcoA-F169A = GcoA-F169A (Amycolatopsis sp., UniProt P0DPQ7, F169A); assay: H2O2 detection via HRP and Amplex Red (uncoupling reaction); format: biochemical, Amycolatopsis sp. ATCC 39116; parameters: GST (N, cleaved yes); made in house; host or cells: E. coli Rosetta 2 (DE3); conditions: referenced to NADH consumed
Experimental: A colorimetric assay involving HRP and Amplex Red was used to quantify H2O2 in the reaction between GcoA-F169A GcoA/GcoB, NADH and guaiacol, syringol, or 3MC, as described in SI Appendix. […]
vi = Vmax[S]/(KM + [S]) (4) […]
The reaction of each aliquot was immediately quenched with 12.5
μL saturated ammonium sulfate, 7% v/v H2SO4 (pH 2.0) prior to loading onto the HPLC column. [Substrate] disappearance was referenced to GcoA (0.2 µM) and fit to a linear line to determine specific activity.
Data analysis. The consumption of NADH and subsequent production of formaldehyde and aromatic product were measured in triplicate and the error reported as ±1 standard deviation. To determine the statistical significance between NADH consumption and the products produced, the p-value was determined for all runs containing guaiacol, syringol, and 3MC. These values were calculated using two degrees of freedom, a tail value of two, and assuming a t-statistical value for unequal variances.
Detection of H2O2 via horseradish peroxidase (HRP) and Amplex Red assay. The reaction between 100 μM guaiacol or 3MC with 0.2 μM F169A/GcoB and 100 μM NADH in air-saturated buffer (25 mM HEPES, 50 mM NaCl, pH 7.5) was monitored continuously in a quartz cuvette, using the NADH consumption assay described above. The same thing was done for syringol, but with either 100 or 200 μM NADH. When there was no longer any change in the spectra, e.g., the reaction was completed, 100 μL was removed from the cuvette and pipetted into a 96-well microplate. A 5 mL solution containing 50 μL of 10 mM Amplex Red (prepared in DMSO and stored at -20 °C) and 100 μL of 10 U/mL HRP was made up in the above buffer. 100 μL of this was added to each of the wells with each reaction sample. The plate was incubated in the dark at room temperature for 30 min, at which point the absorbance at […]
(§1) 572 nm was recorded by a Varioskan Lux microplate reader (Thermo Scientific). The absorbance was compared to a standard curve with 0-100 μM H2O2 to quantify the amount of peroxide produced in the reactions.
Purified protein was buffer exchanged into 10 mM HEPES pH 7.5 and concentrated to an A280 value of 12, as measured on a NanoDrop 2000 spectrophotometer (Thermo Fisher). Crystals of GcoA were grown with 2.4 M sodium malonate and 200 mM substrate, dissolved in 40% DMSO where necessary. Crystals were cryocooled directly in liquid N2 without further addition of cryoprotectants. All data were collected at Diamond Light Source (Harwell, UK). For each crystal, 1800 images were taken at 0.1o increments using the default wavelength of 0.9795Å on beamline i04. Data was captured on a Pilatus 6M-F detector. […]

[1] = system: Pseudomonas putida KT2440 strain AM157 expressing GcoA-F169A and GcoB; assay: In vivo syringol conversion in shake flasks, 1H NMR of culture medium; format: cell-based; conditions: 20 mM glucose, 1 mM syringol
Experimental: A standard for 2-pyrone 6-carboxylate was not available; however, we did verify the presence of 2-pyrone 6-carboxylate using LC-MS-MS (SI Appendix, Fig. S15). While small amounts of pyrogallol, 3MC, and 2-pyrone 6-carboxylate were also observed with the WT GcoAB (AM156), nearly 60% of the original syringol remained after 6 h.
Strains used for shake flask experiments were grown overnight in LB media and resuspended the next day in M9 minimal media with 20 mM glucose, as described in SI Appendix. Cells were grown until they reached an OD600 of approximately 1, at which point syringol was added at a final concentration of 1 mM. ^1H NMR spectroscopy was used to analyze syringol consumption.
as §1
Purified protein was buffer exchanged into 10 mM HEPES pH 7.5 and concentrated to an A280 value of 12, as measured on a NanoDrop 2000 spectrophotometer (Thermo Fisher). Crystals of GcoA were grown with 2.4 M sodium malonate and 200 mM substrate, dissolved in 40% DMSO where necessary. Crystals were cryocooled directly in liquid N2 without further addition of cryoprotectants. […]
Strains evaluated in shake flask experiments were initially grown overnight in LB media with appropriate antibiotics from glycerol stocks and resuspended the following day in M9 minimal media (6.78 g/L Na2HPO4, 3 g/L KH2PO4, 0.5 g/L NaCl, 1 g/L NH4Cl, 2 mM MgSO4, 100 µM CaCl2, and 40 µM FeSO4 . 7H2O) supplemented with 20 mM glucose (Sigma-Aldrich) and […] kanamycin.
Cells were grown until they reached an OD600 of 1, at which point syringol (Sigma-Aldrich) was added to a final concentration of 1 mM. Syringol concentrations were quantified using any 1H NMR, and spectra were collected using a Bruker Avance III HD 400 MHz Spectrometer and analyzed using Bruker TopSpin3.7 software. For identification of unknown compounds, samples were analyzed via LC-MS-MS using the Acquity UPLC system (Waters Inc.). […]

GcoA-F169A, sequence (P0DPQ7 whole entry F169A): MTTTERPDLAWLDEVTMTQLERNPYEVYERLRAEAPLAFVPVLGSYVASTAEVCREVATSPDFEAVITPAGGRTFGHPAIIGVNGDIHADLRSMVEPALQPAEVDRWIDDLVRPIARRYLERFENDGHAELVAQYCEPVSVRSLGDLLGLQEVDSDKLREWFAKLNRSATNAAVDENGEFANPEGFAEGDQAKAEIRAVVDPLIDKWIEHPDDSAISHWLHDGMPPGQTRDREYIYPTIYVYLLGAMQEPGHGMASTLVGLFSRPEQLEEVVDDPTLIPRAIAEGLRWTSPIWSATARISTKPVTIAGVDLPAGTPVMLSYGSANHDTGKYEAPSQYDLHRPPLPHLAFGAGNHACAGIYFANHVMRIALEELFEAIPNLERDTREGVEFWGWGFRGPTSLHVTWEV

## COc1cccc(O)c1O [3MC, 3-methoxycatechol]
GcoA-F169A; 100 µM substrate + 100 µM NADH
  % H2O2 produced: 17 ± 0.2%

## COc1ccccc1O [guaiacol, 2-methoxyphenol]
GcoA-F169A; 100 µM substrate + 100 µM NADH
  % H2O2 produced: 3.7 ± 0.6%

## COc1cccc(OC)c1O [syringol, 2,6-dimethoxyphenol]
GcoA-F169A; 100 µM substrate + 100 µM NADH
  % H2O2 produced: 7.4 ± 0.03%
GcoA-F169A; 100 µM substrate + 200 µM NADH
  % H2O2 produced: 7.9 ± 0.5%
[1]
  syringol 1H NMR peaks in culture medium after 6 h: completely disappeared
